Laboratory results as given in ChEMBL document CHEMBL3351660, “Isolation and total syntheses of cytotoxic cryptolactones A1, A2, B1, and B2: α,β-unsaturated δ-lactones from a Cryptomyzus sp. aphid” (J Nat Prod, 2014).

Assay: Cytotoxicity against human HL60 cells after 24 hrs by MTT assay
Format: functional, cell-based
Conditions: HL-60, 24 h
`CCCCCCCCCCCC(=O)C[C@@H](O)C[C@@H]1CC=CC(=O)O1` gave an IC50 of 4.9 µM. Work on `CCCCCCCCCCCC(=O)C[C@H](O)C[C@@H]1CC=CC(=O)O1` yielded an IC50 of 0.97 µM. `CCCCCCCCCC(=O)C[C@@H](O)C[C@@H]1CC=CC(=O)O1` showed an IC50 of 5.3 µM. For `CCCCCCCCCC(=O)C[C@H](O)C[C@@H]1CC=CC(=O)O1`, the IC50 was 1.2 µM. Work on `COc1cccc2c1C(=O)c1c(O)c3c(c(O)c1C2=O)C[C@@](O)(C(=O)CO)C[C@@H]3O[C@H]1C[C@H](N)[C@H](O)[C@H](C)O1` [DOXORUBICIN] yielded an IC50 of 0.14 µM.
